The structures appear in SMILES notation.

In this test the target is T1, Human Polθ polymerase domain (aa1820-2590) (Homo sapiens, UniProt O75417).
T1 construct: Human Polθ polymerase domain (aa1820-2590) was expressed in E. coli; made in house; host or cells: E. coli
T1 sequence (O75417 1820-2590): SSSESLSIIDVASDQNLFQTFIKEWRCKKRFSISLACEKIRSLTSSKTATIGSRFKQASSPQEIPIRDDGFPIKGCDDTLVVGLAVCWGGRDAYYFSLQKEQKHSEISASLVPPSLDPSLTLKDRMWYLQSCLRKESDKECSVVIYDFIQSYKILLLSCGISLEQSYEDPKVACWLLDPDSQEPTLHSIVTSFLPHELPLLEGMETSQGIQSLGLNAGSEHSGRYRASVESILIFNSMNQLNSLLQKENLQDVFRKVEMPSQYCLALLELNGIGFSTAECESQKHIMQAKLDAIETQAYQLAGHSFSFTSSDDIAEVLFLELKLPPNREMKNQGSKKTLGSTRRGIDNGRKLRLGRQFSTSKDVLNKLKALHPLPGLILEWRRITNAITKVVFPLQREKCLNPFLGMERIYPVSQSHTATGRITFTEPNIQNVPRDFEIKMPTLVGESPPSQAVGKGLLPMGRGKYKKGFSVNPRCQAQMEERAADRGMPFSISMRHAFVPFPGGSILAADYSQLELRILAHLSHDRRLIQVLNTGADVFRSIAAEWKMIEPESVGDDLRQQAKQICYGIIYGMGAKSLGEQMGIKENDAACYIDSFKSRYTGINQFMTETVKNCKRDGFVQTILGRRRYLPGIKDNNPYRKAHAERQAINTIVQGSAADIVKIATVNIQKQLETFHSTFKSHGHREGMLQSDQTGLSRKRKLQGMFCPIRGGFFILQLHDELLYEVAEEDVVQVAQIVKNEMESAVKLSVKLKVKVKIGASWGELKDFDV
The test is described as follows: Polθ Polymerase Domain Kinact/KI Assay (PicoGreen). The note with it: 0.8 nM Polθ, 100 nM DNA substrate, kobs vs [I] fit for 2-step covalent inhibitor. Type of test: biochemical. A digest of the protocol: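 Kinact and KI derive from fitting kobs versus [I], where kobs were fitted from EDTA-stopped PicoGreen time courses (up to 60 min) in Tris pH 7.5 buffer with 1% DMSO, 0.8 nM enzyme, 100 nM DNA and […].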
`C=CC(=O)N1Cc2nc(CN3C[C@H]4CC(=O)N(c5cc(C(F)(F)F)cc(C)n5)[C@@H]4C(=O)N(C)c4cccc(C)c43)ccc2C1CO` (stereo partly drawn) [Example 238, (3aR,11aS)-5-((6-acryloyl-5-(hydroxymethyl)-6,7-dihydro-5H-pyrrolo[3,4-b]pyridin-2-yl)methyl)-6,10-dimethyl-1-(6-methyl-4-(trifluoromethyl)pyridin-2-yl)-1,3a,4,5,10,11a-hexahydro-2H-benzo[b]pyrrolo[2,3-f][1,4]diazocine-2,11(3H)-dione]: the Kinact/Kl turned out to be 740000 M⁻¹ s⁻¹. The result for `C=CC(=O)N1Cc2nc(CN3C[C@H]4CC(=O)N(c5cc(C(F)(F)F)cc(C)n5)[C@@H]4C(=O)N(C)c4cccc(Cl)c43)ccc2C1CO` (stereo partly drawn) [Example 239, (3aR,11aS)-5-((6-acryloyl-5-(hydroxymethyl)-6,7-dihydro-5H-pyrrolo[3,4-b]pyridin-2-yl)methyl)-6-chloro-10-methyl-1-(6-methyl-4-(trifluoromethyl)pyridin-2-yl)-1,3a,4,5,10,11a-hexahydro-2H-benzo[b]pyrrolo[2,3-f][1,4]diazocine-2,11(3H)-dione] reads 730000 M⁻¹ s⁻¹; that for `C=CC(=O)N1Cc2ccc(CN3C[C@H]4CC(=O)N(c5cc(C(F)(F)F)cc(C)n5)[C@@H]4C(=O)N(C)c4cccc(C)c43)nc2C1` [Example 240, (3aR,11aS)-5-((6-acryloyl-6,7-dihydro-5H-pyrrolo[3,4-b]pyridin-2-yl)methyl)-6,10-dimethyl-1-(6-methyl-4-(trifluoromethyl)pyridin-2-yl)-1,3a,4,5,10,11a-hexahydro-2H-benzo[b]pyrrolo[2,3-f][1,4]diazocine-2,11(3H)-dione], 1.55e+06 M⁻¹ s⁻¹; that for `C=CC(=O)N1Cc2nc(CN3C[C@H]4CC(=O)N(c5cc(C(F)(F)F)cc(C)n5)[C@@H]4C(=O)N(C)c4cccc(C)c43)n(C)c2C1` [Example 241, (3aR,11aS)-5-((5-acryloyl-1-methyl-1,4,5,6-tetrahydropyrrolo[3,4-d]imidazol-2-yl)methyl)-6,10-dimethyl-1-(6-methyl-4-(trifluoromethyl)pyridin-2-yl)-1,3a,4,5,10,11a-hexahydro-2H-benzo[b]pyrrolo[2,3-f][1,4]diazocine-2,11(3H)-dione], 1.28e+06 M⁻¹ s⁻¹.

In turn, `C=CC(=O)N1Cc2nc(CN3C[C@H]4CC(=O)N(c5cc(C(F)(F)F)cc(C)n5)[C@@H]4C(=O)N(C)c4cccc(Cl)c43)n(C)c2C1` [Example 242, (3aR,11aS)-5-((5-acryloyl-1-methyl-1,4,5,6-tetrahydropyrrolo[3,4-d]imidazol-2-yl)methyl)-6-chloro-10-methyl-1-(6-methyl-4-(trifluoromethyl)pyridin-2-yl)-1,3a,4,5,10,11a-hexahydro-2H-benzo[b]pyrrolo[2,3-f][1,4]diazocine-2,11(3H)-dione] returned a Kinact/Kl of 660000 M⁻¹ s⁻¹. The result for `C=CC(=O)N1Cc2nc(CN3C[C@H]4CC(=O)N(c5cc(C(F)(F)F)cc(C)n5)[C@@H]4C(=O)N(C)c4cccc(Cl)c43)cn2CC1CO` (stereo partly drawn) [Example 244, (3aR,11aS)-5-((7-acryloyl-6-(hydroxymethyl)-5,6,7,8-tetrahydroimidazo[1,2-a]pyrazin-2-yl)methyl)-6-chloro-10-methyl-1-(6-methyl-4-(trifluoromethyl)pyridin-2-yl)-1,3a,4,5,10,11a-hexahydro-2H-benzo[b]pyrrolo[2,3-f][1,4]diazocine-2,11(3H)-dione] reads 3.83e+06 M⁻¹ s⁻¹; that for `Cc1cc(C(F)(F)F)cc(N2C(=O)C[C@@H]3CN(Cc4ccc(NC(=O)/C=C/CN(C)C)c(F)c4)c4c(Cl)cccc4N(C)C(=O)[C@H]32)n1` [Example 245, (E)-N-(4-(((3aR,11aS)-6-chloro-10-methyl-1-(6-methyl-4-(trifluoromethyl)pyridin-2-yl)-2,11-dioxo-1,2,3,3a,4,10,11,11a-octahydro-5H-benzo[b]pyrrolo[2,3-f][1,4]diazocin-5-yl)methyl)-2-fluorophenyl)-4-(dimethylamino)but-2-enamide], 1.9e+06 M⁻¹ s⁻¹; that for `Cc1cc(C(F)(F)F)cc(N2C(=O)C[C@@H]3CN(Cc4ccc(NC(=O)/C=C/CN(C)C)cc4F)c4c(Cl)cccc4N(C)C(=O)[C@H]32)n1` [Example 246, (E)-N-(4-(((3aR,11aS)-6-chloro-10-methyl-1-(6-methyl-4-(trifluoromethyl)pyridin-2-yl)-2,11-dioxo-1,2,3,3a,4,10,11,11a-octahydro-5H-benzo[b]pyrrolo[2,3-f][1,4]diazocin-5-yl)methyl)-3-fluorophenyl)-4-(dimethylamino)but-2-enamide], 420000 M⁻¹ s⁻¹. The result for `Cc1cc(C(F)(F)F)cc(N2C(=O)C[C@@H]3CN(Cc4cccc(NC(=O)/C=C/CN(C)C)c4)c4c(Cl)cccc4N(C)C(=O)[C@H]32)n1` [Example 247, (E)-N-(3-(((3aR,11aS)-6-chloro-10-methyl-1-(6-methyl-4-(trifluoromethyl)pyridin-2-yl)-2,11-dioxo-1,2,3,3a,4,10,11,11a-octahydro-5H-benzo[b]pyrrolo[2,3-f][1,4]diazocin-5-yl)methyl)phenyl)-4-(dimethylamino)but-2-enamide] reads 980000 M⁻¹ s⁻¹; that for `C=CC(=O)Nc1ccc(CN2C[C@H]3CC(=O)N(c4cc(C(F)(F)F)cc(C)n4)[C@@H]3C(=O)N(C)c3cccc(Cl)c32)cc1C#N` [Example 248, N-(4-(((3aR,11aS)-6-chloro-10-methyl-1-(6-methyl-4-(trifluoromethyl)pyridin-2-yl)-2,11-dioxo-1,2,3,3a,4,10,11,11a-octahydro-5H-benzo[b]pyrrolo[2,3-f][1,4]diazocin-5-yl)methyl)-2-cyanophenyl)acrylamide], 810000 M⁻¹ s⁻¹. For `CC(=O)N1CCN(C/C=C/C(=O)Nc2ccc(CN3C[C@H]4CC(=O)N(c5cc(C(F)(F)F)cc(C)n5)[C@@H]4C(=O)N(C)c4cccc(C)c43)cc2)CC1` [Example 249, (E)-4-(4-acetylpiperazin-1-yl)-N-(4-(((3aR,11aS)-6,10-dimethyl-1-(6-methyl-4-(trifluoromethyl)pyridin-2-yl)-2,11-dioxo-1,2,3,3a,4,10,11,11a-octahydro-5H-benzo[b]pyrrolo[2,3-f][1,4]diazocin-5-yl)methyl)phenyl)but-2-enamide] the value was 110000 M⁻¹ s⁻¹; for `C=CC(=O)N1CCOc2ccc(CN3C[C@H]4CC(=O)N(c5cc(C(F)(F)F)cc(C)n5)[C@@H]4C(=O)N(C)c4cccc(Cl)c43)cc21` [Example 250, (3aR,11aS)-5-((4-acryloyl-3,4-dihydro-2H-benzo[b][1,4]oxazin-6-yl)methyl)-6-chloro-10-methyl-1-(6-methyl-4-(trifluoromethyl)pyridin-2-yl)-1,3a,4,5,10,11a-hexahydro-2H-benzo[b]pyrrolo[2,3-f][1,4]diazocine-2,11(3H)-dione], 530000 M⁻¹ s⁻¹; for `Cc1cc(C(F)(F)F)cc(N2C(=O)C[C@@H]3CN(Cc4ccc5c(c4)N(C(=O)/C=C/CN(C)C)CCO5)c4c(Cl)cccc4N(C)C(=O)[C@H]32)n1` [Example 251, (3aR,11aS)-6-chloro-5-((4-((E)-4-(dimethylamino)but-2-enoyl)-3,4-dihydro-2H-benzo[b][1,4]oxazin-6-yl)methyl)-10-methyl-1-(6-methyl-4-(trifluoromethyl)pyridin-2-yl)-1,3a,4,5,10,11a-hexahydro-2H-benzo[b]pyrrolo[2,3-f][1,4]diazocine-2,11(3H)-dione], 370000 M⁻¹ s⁻¹.
